One compound from patent publication US11485700B2, “Synthesis of (+)-cannabinoids and their therapeutic effects” (SYMRISE AG, priority 2018, dated 2022) can be followed below.

For data set [1], the system named is PolyIC-treated human keratinocytes (HaCat). As to the kind of experiment: Poly I:C-induced proteases in human HaCat keratinocytes. The format is cell-based. The following applies: Poly I:C 10 μg/ml, 24 h; maximal effect, doses up to 25 μM. How it is done: (§1) Cell cultures: Human primary monocytes were extracted from the whole blood of medically healthy volunteers, who provided written informed consent at the local blood bank (University Hospital of Freiburg, Germany), following a standardized protocol (gradient preparation, Lymphocytes separation medium, PAN Biotech, P04-60125, Aidenbach, Germany) using completely endotoxin-free cultivation. Using 50 ml tubes, 25 ml Pancoll was loaded with 25 ml of blood (buffy coats). The gradient was established by centrifugation at 1800 rpm, 20° C. for 40 min with slow acceleration and deceleration. Peripheral blood mononuclear cells in the interphase were carefully removed and re-suspended in 50 ml pre-warmed phosphate-buffered saline (PBS) (Pan Biotech, P04-36500), followed by centrifugation for 10 min at 1600 rpm and 20° C. The supernatant was discarded and the pellet washed in 50 ml PBS and centrifuged as described above. The pellet was then re-suspended in 50 ml RPMI-1640 low-endotoxin medium supplemented with 10% human serum (Hexcell, Berlin, Germany, SP2080). After counting the number of cells in a particle counter (Euro Diagnostics, Krefeld, Germany), cells were seeded in 24-well plates for enzyme linked immunosorbent assay (ELISA) (2.2 mio. cells/well) or 96-well plates at a density of 2×10^4 cells/well for cell viability testing, and incubated at 37° C. with 5% CO2. The medium and the non-adherent cells (lymphocytes) were removed and fresh RPMI-1640 medium containing 1% human serum added. Enriched monocytes were then ready to be used for the experiments. Primary human fibroblasts and HaCat keratinocytes were obtained from the Uniklinik Freiburg. All cells were maintained in supplemented DMEM (Invitrogen, Life-Technologies, Darmstadt, Germany) medium containing 10% FBS (Bio&Sell, Feucht, Germany) and 1% antibiotics penicillin/streptomycin (from Invitrogen, DMEM complete medium) at 37° C. in a humidified atmosphere of 5% CO2.
Determination of MMPs and TIMPs in keratinocytes: Keratinocytes (HaCat) were cultivated as described above. Cells were seeded in 24-well plates incubated with Poly I:C (InvivoGen, San Diego, Calif.; USA, 10 μg/ml) in absence and presence of the cannabinoids (5 doses, n=3) for 24 h. Unstimulated cells served as a negative control. 24 h after cell stimulation, supernatants were removed, centrifuged and investigated for MMP1, MMP9 and TIMP1 concentrations by ELISAs according to the manufacturer's protocol (from Biotechne, Wiesbaden, Germany). The respective extinction was determined using a 96-well plate reader (Berthold, Offenburg, Germany).

Data set [2] relates to IL-1-treated human dermal fibroblasts. As to the kind of experiment: IL-1-induced inflammatory parameters in human dermal fibroblasts. Type of data set: cell-based. The following applies: 24 h.
In data set [3] the test system is LPS-treated human monocytes. In words: LPS-induced inflammatory parameters in human monocytes. As to conditions: LPS 10 ng/ml, 24 h. The format is cell-based. How it is done: as §1
Measurement of cytokines and PGE2 in primary human monocytes: Cells were incubated with LPS (Sigma-Aldrich, Taufkirchen, Germany, 10 ng/ml) for 24 h. The cannabinoids (5 doses) were added 30 min before LPS treatment. After 24 h, supernatants were removed, centrifuged and investigated for IL-1beta, IL-8, IL-6, TNFalpha, MMP9, isoprostane, and PGE2 concentrations in EIAs (PGE2 and isoprostane, from Cayman/Biomol, Hamburg, Germany) or ELISAs (IL-1beta, Hiss, Freiburg, Germany; TNFalpha, IL-6 and IL-8, ImmunoTools, Frysoithe, Germany, MMP9, Biotechne, Wiesbaden, Germany) using manufacturer's protocol. The respective extinction was determined using a 96-well plate reader (Berthold, Offenburg, Germany). Each dose was analyzed 4 times in two buffy coats from 2 different donors (2 buffy coats used from 2 different healthy blood donors with final n=4 values).

Another data set has as its target CB2 receptor (Homo sapiens (Human), UniProt P34972). As to the kind of experiment: In vitro binding to CB2 receptor, [3H]-CP55940 radioligand displacement. How it is done: (§2) Compounds with an expected profile as CB1 and/or CB2 receptor ligands were evaluated by competition studies that allow determining the affinity of these compounds (Ki values) for both receptors against a classical cannabinoid ligand. The competition studies were conducted with membranes transfected with either CB1 or CB2 receptors. For stock solutions the compounds were dissolved at concentrations of 50 and 100 mM and stored at −20° C.
(§3) 96-well plates and the tubes necessary for the experiment were siliconized with Sigmacote (Sigma). Membranes were resuspended in the corresponding buffer and were incubated with the radioligand and each compound for 90 min at 30° C. Non-specific binding was determined with 10 μM WIN55212-2 and 100% binding of the radioligand to the membrane was determined by its incubation with membrane and without any compound. Filtration was performed by a Harvester®filtermate (Perkin-Elmer) with Filtermat A GF/C filters pretreated with polyethylenimine 0.05%. After filtering, the filter was washed nine times with binding buffer, dried and a melt-on scintillation sheet (Meltilex™ A, Perkin Elmer) was melted onto it. Then, radioactivity was quantified by a liquid scintillation spectrophotometer (Wallac MicroBeta Trilux, Perkin-Elmer).
(§4) Radioligand displacement assays were used to evaluate the affinity of the new compounds using membranes from cells (HEK293EBNA) transfected with the CB1 or the CB2 receptors and [^3H]-CP55940 as radioligand. The evaluation of the compounds was conducted in two phases. The first phase consisted in a simple screening with a unique and high concentration of each compound (40 μM). The data was collected from at least three experiments performed in triplicate. […] This consisted of a competition study with [^3H]CP55940 (0.10 nM for CB1 and 0.15 nM for CB2) and different concentrations of the selected compounds (10^−4-10^−11M). The data was analyzed, by using GraphPad Prism® version 5.01 (GraphPad Software Inc., San Diego, Calif., USA), for the calculation of Ki values expressed as mean±SEM of at least three experiments performed in triplicate for each point.

The target in the next data set is CB1 receptor (Homo sapiens (Human), UniProt P21554). As to the kind of experiment: In vitro binding to CB1 receptor, [3H]-CP55940 radioligand displacement. As for the experimental part: as §2, §3, §4
The mark [4] stands for this setting: maximal effect, doses up to 25 μM.

Turning to `C=C(C)[C@H]1CCC(C)=C[C@@H]1c1c(O)cc(CCCCC)c(C(=O)OC)c1O` [(+)-CBD-ME, (+)-Cannabidiol methylester], the “inhibition of Poly I:C-stimulated TIMP1” value in data set [1] is recorded as 40%. In addition, the “dose that seems to be toxic in fibroblasts” value in data set [2] came to 25 µM. For the same compound, in data set [3], the “doses increasing LPS-induced IL-8” value is 5 to 25 µM and the “doses increasing LPS-mediated IL-1beta” value worked out at 25 µM. For the same compound, in data set [3] (setting [4]), the “inhibition of LPS-induced IL-6” value is recorded as “around 20%” and the “inhibition of LPS-stimulated TNFalpha release” value is “around 20%”. The same compound registered a Ki on CB2 receptor of 28 nM. For the same compound, on CB1 receptor, the affinity, expressed as Ki, was 345 nM. The CB1/CB2 selectivity at CB1 receptor (ratio of CB1-Ki to CB2-Ki) came out at 12.3.
